In assay [1] the test system is MAP kinases (p38 MAPK, ERK, JNK) in L929 cells. Briefly: Cell-based ELISA for activation of MAP kinases. Also on record: species or system mouse. To be noted: L929, 25 μg/ml, time course. As for the experimental part: (§1) Activation of MAP kinases (p38 MAPK, extracellular signal-regulated kinase—ERK, and Jun-N-terminal kinase—JNK) or nuclear factor-κB (NF-κB) was determined by means of a slightly modified method of cell-based ELISA by Versteeg et al. (Versteeg 2000). Since MAP kinases are activated by phosphorylation, and phosphorylation of the inhibitory subunit IκB is a necessary step for NF-κB activation, we used antibodies specific for phosphorylated forms of MAP kinases (p-p38, p-ERK and p-JNK) and IκB (p-IκB). The cells were grown overnight in 96-well flat-bottom plates in a culture medium containing 0.5% FCS and then treated with the test compound diluted in conventional culture medium. At the end of treatment period the cells were fixed in 4% parformaldehyde, endogenous peroxydase was quenched with 1% H2O2 in PBS containing 0.1% Triton X-100 (PBST), and unspecific binding of antibodies was blocked with a PBST solution containing 10% FCS. Primary mouse monoclonal antibodies specific for rat/mouse p-ERK, p-p38, p-JNK, p-IκB (1:200; all from Santa Cruz Biotechnology, Santa Cruz, Calif.) were applied in PBST supplemented with 2% bovine serum albumine (PBSTB), followed by secondary peroxidase-conjugated goat anti-mouse IgG (1:2500 in PBSTB; USB corporation, Cleveland, Ohio) for anti-p-ERK, anti-p-JNK and anti-p-IκB, or anti-mouse IgM (1:4000; USB corporation) for detection of anti-p-p38. Incubation with antibodies was carried out at 37° C. for 1 h. After 15 min incubation with peroxydase substrate TMB and subsequent addition of 0.1 M HCl, the absorbance at 450 nm was measured in an automated microplate reader. To enable comparison between treatment and control, the resulting absorbances were corrected for the cell number determined by crystal violet staining, as described in the original protocol. The results are presented as relative expression in comparison with the control value, which was arbitrarily set to 1.
For orientation: ELISA stands for enzyme-linked immunosorbent assay.

Assay [2] concerns MAP kinases (p38 MAPK, ERK, JNK) in B16 cells. Briefly: Cell-based ELISA for activation of MAP kinases. The arrangement: species or system mouse. To be noted: B16, 25 μg/ml, time course. On the procedure: as §1
The test system of a further assay is ConA-induced hepatitis. Briefly: Hepatitis induced by concanavalin (ConA) injection in NMRI mice. It is filed as in vivo. To be noted: prophylactic, all tested doses (0.5 and 1 i.p., 5 mg/mouse p.o.), -24 and -1 h prior to ConA, blood 8 h after ConA, vs vehicle. As for the experimental part:
ConA-induced hepatitis is a cell-mediated immunoinflammatory condition similar to different immunoinflammatory conditions of liver diseases in humans that can be induced in mice by a single intravenous injection of ConA. This disease is characterized by a marked increase in the plasma levels of transaminase shortly (8-24 hours) after ConA challenge and simultaneous infiltration of the liver with neutrophils, macrophages and T cells followed by apoptosis and necrosis of the hepatocytes.
Hepatitis was induced by ConA (Sigma Chemical, St. Louis, Mo.) injection into the tail veins in six to 9 weeks Naval Medical Research Institute (NMRI) male mice. Four groups of mice were treated or i.p. with Git27-NO at the doses of 0.5 and 1 or p.o. at 5 mg/mouse or with the vehicle, −24 and −1 hours prior to ConA. The animals were sacrificed for blood collection 8 hours after Con A injection and plasma alanine aminotransferase (ALT) activity was determined by a standard photometric assay using a bichromatic analyzer.

Another assay relates to L929 cells. Kind of assay: LDH release assay (cell death). In kind it is cell-based, mouse. To be noted: L929, dose-dependent (24 h) and time-dependent (25 μg/ml), significant after 18 h. On the procedure:
As a marker of necrotic cell death, the release of intracellular enzyme LDH, which mediates the conversion 2,4-dinitrophenylhydrazine into visible hydrazone precipitate in the presence of pyruvate, was measured. The cells were seeded in flat-bottom 96-well plates as indicated above and the assay was performed after 24 h incubation, as previously described (Decker et al). The percentage of dead cells was determined using the following formula: [(E−C)/(T−C)]×100, wherein E is the experimental absorbance of treated cultures measured at 492 nm, C is the absorbance of supernatants of control untreated cells, and T is the absorbance corresponding to the maximal (100%) LDH release of Triton-lysed cells. Cell cycle analysis and apoptosis detection were carried out exactly as described in the literature (Mijatovic CMLS 2005). Acidic vesicular organelles, which characterise autophagy, are stained by vital dye acridin orange. The intensity of red fluorescence is proportional to the acidity and volume of the organelles, while the cytoplasm and nucleolus emits bright green and dim red (Kanzawa 2004). […] Green (510-530 nm) and red (>650 nm) fluorescence emission from 10^4 cells illuminated with blue (488 nm) excitation light was measured with a FACS Calibur and analyzed using CellQuest software.

For the next assay, the system named is B16 cells. Briefly: LDH release assay (cell death). In kind it is cell-based, mouse. To be noted: B16, dose-dependent (24 h) and time-dependent (25 μg/ml), significant after 18 h. On the procedure:
As a marker of necrotic cell death, the release of intracellular enzyme LDH, which mediates the conversion 2,4-dinitrophenylhydrazine into visible hydrazone precipitate in the presence of pyruvate, was measured. […] The percentage of dead cells was determined using the following formula: [(E−C)/(T−C)]×100, wherein E is the experimental absorbance of treated cultures measured at 492 nm, C is the absorbance of supernatants of control untreated cells, and T is the absorbance corresponding to the maximal (100%) LDH release of Triton-lysed cells. Cell cycle analysis and apoptosis detection were carried out exactly as described in the literature (Mijatovic CMLS 2005). Acidic vesicular organelles, which characterise autophagy, are stained by vital dye acridin orange. The intensity of red fluorescence is proportional to the acidity and volume of the organelles, while the cytoplasm and nucleolus emits bright green and dim red (Kanzawa 2004). For the detection of autophagy the cells were cultivated in 6-well plates as previously described, detached and stained with 1 μg/ml acridin orange for 15 min at RT. At the end of the incubation period the cells were washed and finally resuspended in PBS. Green (510-530 nm) and red (>650 nm) fluorescence emission from 10^4 cells illuminated with blue (488 nm) excitation light was measured with a FACS Calibur and analyzed using CellQuest software.

For assay [3], the system named is MAP kinases (p38 MAPK, ERK, JNK) in C6 cells. Briefly: Cell-based ELISA for activation of MAP kinases. To be noted: C6, 25 μg/ml, time course. The arrangement: species or system rat. As for the experimental part: as §1

With `N#Cc1c(COC(=O)CC2CC(c3ccccc3)=NO2)no[n+]1[O-]` (racemic) [GIT27-NO, (S,R)-3-phenyl-4,5 dihydro-5-isoxazole acetic acid-nitric oxide], in assay [1], the “activation of ERK1/2” value was “marked and sustained activation”; the “activation of p38” value is reported as “significant transient activation”; the “expression (activation) of JNK” value is “without affecting the expression”. For the same molecule, in assay [2], the “activation of ERK1/2” value is “did not affect the activation”, the “activation of JNK” value is reported as “significant time-dependent activation” and the “activation of p38” value is on record as “only slight activation”. For the same molecule, the “plasma ALT activity” value in the assay on ConA-induced hepatitis is on record as “significantly reduced”. In addition, in the assay with L929 cells, the LDH release entry is “induced LDH release”. In addition, in the assay with B16 cells, the LDH release result was “induced LDH release”. Further, in assay [3], the “activation of ERK1/2” value was “permanent activation”, the “activation of JNK” value was “permanent activation” and the “activity of p38” value was “not affected”.

For the origin of these results see US8207206B2, “(S,R)-3-phenyl-4,5 dihydro-5-isoxazole acetic acid-nitric oxide and use thereof as anti-cancer and antiviral agent” (OncoNOx APS, priority 2007, dated 2012).
